Data on three molecules can be found in article PMC8452096 (bioRxiv, 2021).

The structures appear in SMILES notation.

Data set [1] in a line: Plasma pharmacokinetics after oral administration in uninfected BALB/c mice. The class given is in vivo.
Another data set concerns SARS-CoV-2 nLUC. Description: microbe, parasite or virus in culture. The class given is cell-based. The following applies: Severe acute respiratory syndrome coronavirus 2.
For a further data set, the system named is WT SARS-CoV-2. The format is cell-based.
In a further data set the test system is SARS-CoV-2 Fluc. Description: microbe, parasite or virus in culture. The format is cell-based. As to conditions: Severe acute respiratory syndrome coronavirus 2, NHBE, in Homo sapiens, 24 h.
The conditions of data set [2]: molar basis, compared with RDV; cited from earlier work.

`O=c1nc(NO)ccn1[C@@H]1O[C@H](CO)[C@@H](O)[C@H]1O` [NHC, β-D-N4-hydroxycytidine]: the NHC plasma exposures result in data set [1] (after oral MPV 30 mg/kg or 100 mg/kg BID, BALB/c mice) is reported as “dose proportional increases”.
What is called EC50 is the concentration that produces a half-maximal response. Read a low EC50 as an effect from little substance. For the molecule `CCC(CC)COC(=O)[C@H](C)N[P@](=O)(OC[C@H]1O[C@@](C#N)(c2ccc3c(N)ncnn23)[C@H](O)[C@@H]1O)Oc1ccccc1` [RDV, remdesivir], the values for the EC50 with SARS-CoV-2 nLUC and in the data set on SARS-CoV-2 Fluc were 0.28 µM and 0.0371 µM, respectively. For the same molecule, the “infectious virus production / viral titers” value in the data set on WT SARS-CoV-2 is “significant and dose-dependent reduction in viral titers”.
As for `N#C[C@@]1(c2ccc3c(N)ncnn23)O[C@H](CO)[C@@H](O)[C@H]1O` [GS-441524], the 50% effective concentration (EC50) amounted to 3.3 µM in the data set on SARS-CoV-2 nLUC and 2.45 µM with SARS-CoV-2 Fluc. Moreover, the “infectious virus production / viral titers” value with WT SARS-CoV-2 is “significant and dose-dependent reduction in viral titers”. The “maximal plasma concentrations (Cmax) and exposures (AUC0–24h)” value in data set [1] (GS-441524 after single oral GS-621763, 5 vs 20 mg/kg) was “Dose proportional increases”. The “efficiency at generating lung triphosphate, less than RDV” value in data set [2] is recorded as “at least 10 fold”.
